According to patent US20070270352A1, “Method of Treatment” (priority 2002, published 2007):
Read-outs that look alike come from different tables or passages of the source.

What was measured:
[1] = system: p75^NTR (i.e. Chopper)-mediated cell apoptosis; format: cell-based, mice
[2] = system: p75^NTR-mediated cell apoptosis; assay: Caspase activity after injection into the eye of chick embryos (FIG. 11); format: in vivo; conditions: injected into the eye of chick embryos; 500 nM of Tertiapin
Protocol: FIG. 11 is a graphical representation showing that p75^NTR-mediated cell apoptosis requires functional GIRK channels. Apoptotic activity is measured in terms of caspase activity in the presence of Tertiapin, anti-NGF antibody and Iberiotoxin.
In FIG. 11, Tertiapin was injected into the eye of chick embryos. Anti-NGF antibodies and Iberiotoxin ([…]) were also tested. Apoptotic activity was measured using caspase activity.

[3] = biological target: T1, GIRK 1 and 4 subunits (Homo sapiens, UniProt P48544+P48549); conditions: cited from earlier work
T1 sequence (P48544 whole entry, looked up): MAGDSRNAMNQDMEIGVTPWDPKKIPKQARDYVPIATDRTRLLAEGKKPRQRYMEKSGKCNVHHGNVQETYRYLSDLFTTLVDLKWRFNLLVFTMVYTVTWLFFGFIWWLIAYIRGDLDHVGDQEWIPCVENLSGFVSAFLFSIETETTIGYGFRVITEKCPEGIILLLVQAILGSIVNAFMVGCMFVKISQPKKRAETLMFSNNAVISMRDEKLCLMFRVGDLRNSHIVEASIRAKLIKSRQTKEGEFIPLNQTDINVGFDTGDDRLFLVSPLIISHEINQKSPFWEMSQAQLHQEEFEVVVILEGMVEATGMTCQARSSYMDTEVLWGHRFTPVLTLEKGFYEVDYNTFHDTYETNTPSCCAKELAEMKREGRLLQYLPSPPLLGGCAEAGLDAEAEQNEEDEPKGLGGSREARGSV
T1 sequence (P48549 whole entry, looked up): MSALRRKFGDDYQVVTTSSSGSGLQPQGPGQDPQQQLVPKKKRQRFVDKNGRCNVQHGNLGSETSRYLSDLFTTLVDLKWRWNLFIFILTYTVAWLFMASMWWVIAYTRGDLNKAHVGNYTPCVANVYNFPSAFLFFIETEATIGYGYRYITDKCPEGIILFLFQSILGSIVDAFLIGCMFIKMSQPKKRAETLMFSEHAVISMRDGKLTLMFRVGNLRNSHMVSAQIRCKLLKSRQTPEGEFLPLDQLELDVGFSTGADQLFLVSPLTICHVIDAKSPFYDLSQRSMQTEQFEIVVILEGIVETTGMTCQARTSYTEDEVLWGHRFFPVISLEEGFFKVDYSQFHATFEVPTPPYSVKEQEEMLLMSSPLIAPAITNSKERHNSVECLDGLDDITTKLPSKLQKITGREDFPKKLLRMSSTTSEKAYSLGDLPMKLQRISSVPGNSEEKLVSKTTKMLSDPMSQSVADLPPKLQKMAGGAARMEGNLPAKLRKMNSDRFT

[4] = biological target: T2, ROMK1 channels (Homo sapiens, UniProt P48048); conditions: cited from earlier work
T2 sequence (P48048 whole entry, looked up): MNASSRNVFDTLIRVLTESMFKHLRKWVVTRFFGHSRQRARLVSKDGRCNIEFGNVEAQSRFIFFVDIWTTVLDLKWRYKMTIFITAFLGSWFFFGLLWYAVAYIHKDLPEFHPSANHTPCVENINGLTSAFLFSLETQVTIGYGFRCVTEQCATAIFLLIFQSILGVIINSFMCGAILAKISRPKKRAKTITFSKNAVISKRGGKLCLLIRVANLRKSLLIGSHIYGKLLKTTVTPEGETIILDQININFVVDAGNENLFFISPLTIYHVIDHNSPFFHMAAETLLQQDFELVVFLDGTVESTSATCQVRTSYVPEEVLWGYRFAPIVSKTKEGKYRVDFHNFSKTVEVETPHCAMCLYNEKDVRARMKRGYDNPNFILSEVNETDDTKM

[5] = p75NTR (Chopper)-mediated apoptosis of neuronal cells, neuronal viability after Chopper peptide, inhibitor added just prior or pretreated

| Compound | Prevention of killing? [1, 5] | also measured |
| --- | --- | --- |
| TTX | – | Prevention of killing? [1]: No |
| Charybdotoxin | Yes | Chopper domain-mediated killing / p75^NTR (i.e. Chopper)-mediated cell apoptosis ([1]; FIGS. 3-7, 10): inhibited |
| Margatoxin | No | – |
| Iberiotoxin (QFTDVDCSVSKECWSVCKDLFGVDRGKCMGKKCRCYQ; UniProt P24663 1-37, looked up) | No | – |
| CC[N+](CC)(CC)CC.[Cl-] [TEA, Tetraethylammonium chloride] | – | Chopper domain-mediated killing / p75^NTR (i.e. Chopper)-mediated cell apoptosis [1]: inhibited; Prevention of killing? [1]: Yes |
| NCC(CC(=O)O)c1ccc(Cl)cc1 (stereo not shown) [Baclofen] | – | cell survival ([1]; GABA receptor agonist activating GIRKs (FIG. 10 model)): promotion of cell survival |
| CCCCN1CCCCC1C(=O)Nc1c(C)cccc1C (stereo not shown) [Bupivicane] | Yes | Chopper domain-mediated killing / p75^NTR (i.e. Chopper)-mediated cell apoptosis ([1]; FIGS. 3-7, 10): inhibited |
| O=C(O)CN(CC(=O)O)c1ccccc1OCCOc1ccccc1N(CC(=O)O)CC(=O)O [BAPTA] | No | – |
| Nc1ccncc1 [4-aminopyridine] | Toxic | – |
| δ-Dendrotoxin | No | – |
| CC(=O)OCOC(=O)CN(CC(=O)OCOC(C)=O)c1ccccc1OCCOc1ccccc1N(CC(=O)OCOC(C)=O)CC(=O)OCOC(C)=O [BAPTA-AM] | Yes | – |
| Tertiapin (ALCNCNRIIIPHMCWKKCGKK) | Yes | caspase activity (apoptotic activity) [2]: effective in reducing caspase activity; affinity of inhibition [3]: nanomolar affinities; Chopper domain-mediated killing / p75^NTR (i.e. Chopper)-mediated cell apoptosis ([1]; FIGS. 3-7, 10): inhibited; affinity of inhibition [4]: nanomolar affinities |
| Pertussis toxin [Pertusis toxin] | No | Chopper domain-mediated killing / p75^NTR (i.e. Chopper)-mediated cell apoptosis ([1]; FIGS. 3-7, 10): still results in Chopper-mediated killing |
| 2-APB | No | – |
